This passage reports DC50, Activity and Kd results from ChEMBL document CHEMBL5543147, “Discovery and Characterization of a Novel Cereblon-Recruiting PRC1 Bridged PROTAC Degrader” (J Med Chem, 2024).

Assay [1] has as its target von Hippel-Lindau disease tumor suppressor/Polycomb protein EED (Homo sapiens, UniProt O75530+P40337). As to the kind of experiment: PROTAC activity at VHL/EED in human KARPAS-422 cells assessed as degradation of EED protein expression by Western blotting analysis. The class given is cell-based. Background: In western blotting, separated proteins are transferred to a membrane and probed.

The target in assay [2] is von Hippel-Lindau disease tumor suppressor/Histone-lysine N-methyltransferase EZH2 (Homo sapiens, UniProt Q15910+P40337). As to the kind of experiment: PROTAC activity at VHL/EZH2 in human KARPAS-422 cells assessed as degradation of EZH2 protein expression by Western blotting analysis. The class given is cell-based.
Chain of von Hippel-Lindau disease tumor suppressor/Histone-lysine N-methyltransferase EZH2 (Q15910 whole entry): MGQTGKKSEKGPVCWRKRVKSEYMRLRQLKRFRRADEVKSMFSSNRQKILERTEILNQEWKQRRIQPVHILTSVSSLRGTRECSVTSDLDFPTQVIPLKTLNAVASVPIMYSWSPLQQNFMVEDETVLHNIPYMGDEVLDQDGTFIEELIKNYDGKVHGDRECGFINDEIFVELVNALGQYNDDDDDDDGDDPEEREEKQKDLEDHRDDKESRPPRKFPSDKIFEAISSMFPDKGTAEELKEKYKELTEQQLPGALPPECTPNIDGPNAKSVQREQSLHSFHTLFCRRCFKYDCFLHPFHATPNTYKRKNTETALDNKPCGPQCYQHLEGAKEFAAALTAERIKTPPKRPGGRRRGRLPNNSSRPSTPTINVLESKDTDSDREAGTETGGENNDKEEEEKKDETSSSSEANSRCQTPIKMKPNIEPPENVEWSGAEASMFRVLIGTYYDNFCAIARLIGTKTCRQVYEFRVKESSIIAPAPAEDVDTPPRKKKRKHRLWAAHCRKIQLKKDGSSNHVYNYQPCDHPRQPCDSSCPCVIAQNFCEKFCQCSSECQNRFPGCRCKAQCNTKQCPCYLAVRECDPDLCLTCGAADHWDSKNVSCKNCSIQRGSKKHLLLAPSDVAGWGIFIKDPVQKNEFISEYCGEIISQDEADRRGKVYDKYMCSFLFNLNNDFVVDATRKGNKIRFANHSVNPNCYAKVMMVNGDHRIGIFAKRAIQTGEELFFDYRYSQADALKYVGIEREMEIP
Chain of von Hippel-Lindau disease tumor suppressor/Histone-lysine N-methyltransferase EZH2 (P40337 whole entry): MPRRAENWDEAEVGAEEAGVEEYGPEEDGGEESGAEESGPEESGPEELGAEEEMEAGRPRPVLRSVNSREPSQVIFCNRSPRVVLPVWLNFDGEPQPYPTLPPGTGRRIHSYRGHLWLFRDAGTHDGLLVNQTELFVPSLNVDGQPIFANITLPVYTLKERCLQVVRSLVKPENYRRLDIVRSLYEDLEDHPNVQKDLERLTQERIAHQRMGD
In assay [3] the target is T1, von Hippel-Lindau disease tumor suppressor/Polycomb complex protein BMI-1 (Homo sapiens) (UniProt P40337+P35226). Nature of the assay: PROTAC activity at […] in human K562 cells assessed as degradation of BMI1 protein expression at 1 to 10 uM incubated for 24 hrs by Western blotting analysis. It is filed as cell-based. Particulars: dose 1-10 µM.
T1 sequence (P35226 whole entry, looked up): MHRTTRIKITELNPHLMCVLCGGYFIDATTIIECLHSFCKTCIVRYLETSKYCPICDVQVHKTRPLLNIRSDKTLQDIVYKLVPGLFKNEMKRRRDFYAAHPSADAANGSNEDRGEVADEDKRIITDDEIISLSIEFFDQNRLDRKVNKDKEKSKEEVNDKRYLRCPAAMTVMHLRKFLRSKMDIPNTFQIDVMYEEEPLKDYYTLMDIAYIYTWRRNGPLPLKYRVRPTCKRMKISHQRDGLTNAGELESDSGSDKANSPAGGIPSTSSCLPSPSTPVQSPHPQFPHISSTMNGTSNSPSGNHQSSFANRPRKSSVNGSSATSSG
T1 sequence (P40337 whole entry, looked up): as the sequence (P40337 whole entry) above
The target of assay [4] is T2, Protein cereblon/E3 ubiquitin-protein ligase RING2 (Homo sapiens, UniProt Q96SW2+Q99496). Nature of the assay: PROTAC activity at CRBN/RING1B in human K562 cells assessed as degradation of RING1B protein expression at 1 to 10 uM incubated for 24 hrs by Western blotting analysis. It is filed as cell-based. Particulars: dose 1-10 µM.
T2 sequence (Q96SW2 whole entry): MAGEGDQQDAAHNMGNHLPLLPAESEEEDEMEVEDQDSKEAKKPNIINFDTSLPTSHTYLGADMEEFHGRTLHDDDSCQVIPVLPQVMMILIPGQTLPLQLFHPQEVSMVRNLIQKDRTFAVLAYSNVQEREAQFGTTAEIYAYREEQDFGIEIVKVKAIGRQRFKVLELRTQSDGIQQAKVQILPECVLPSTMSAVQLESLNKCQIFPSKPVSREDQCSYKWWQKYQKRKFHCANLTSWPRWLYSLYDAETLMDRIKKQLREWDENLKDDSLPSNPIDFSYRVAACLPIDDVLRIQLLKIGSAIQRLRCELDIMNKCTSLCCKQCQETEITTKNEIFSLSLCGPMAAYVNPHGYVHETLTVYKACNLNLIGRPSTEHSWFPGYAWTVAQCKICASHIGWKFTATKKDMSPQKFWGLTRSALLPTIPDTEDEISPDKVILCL
T2 sequence (Q99496 2-336 partner limits assumed): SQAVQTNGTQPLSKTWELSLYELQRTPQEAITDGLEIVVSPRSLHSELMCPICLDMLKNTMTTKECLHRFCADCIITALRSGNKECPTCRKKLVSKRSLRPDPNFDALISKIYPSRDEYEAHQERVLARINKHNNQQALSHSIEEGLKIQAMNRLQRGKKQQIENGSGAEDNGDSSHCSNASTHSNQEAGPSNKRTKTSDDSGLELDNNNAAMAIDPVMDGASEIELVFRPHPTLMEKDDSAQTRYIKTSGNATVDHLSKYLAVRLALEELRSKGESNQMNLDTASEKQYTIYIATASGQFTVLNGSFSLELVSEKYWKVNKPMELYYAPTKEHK
Assay [5] relates to K562. As to the kind of experiment: Induction of PRC2 degradation in human K562 cells assessed as reduction of H3K27me3 chromatin mark at 1 to 10 uM incubated for 24 hrs by Western blotting analysis. It is filed as cell-based. The conditions noted are these: dose 1-10 µM.
For assay [6], the system named is K562. Nature of the assay: Antiproliferative activity against human K562 cells assessed as cell growth inhibition incubated for 7 days by WST-8 assay. It is filed as functional. The conditions noted are these: time 7.0 day. On the technique in general: Tetrazolium dyes change colour on reduction, which living cells bring about.
In assay [7] the test system is K562. Nature of the assay: Antiproliferative activity against human K562 cells assessed as increase in HoxA mRNA expression at 10 uM incubated for 24 hrs by RT-qPCR analysis. It is filed as functional, cell-based. For orientation: Real-time PCR tracks product formation cycle by cycle.
The test system of assay [8] is K562. Nature of the assay: Antiproliferative activity against human K562 cells assessed as increase in HoxD mRNA expression at 10 uM incubated for 24 hrs by RT-qPCR analysis. It is filed as functional, cell-based.
The target of assay [9] is T1, von Hippel-Lindau disease tumor suppressor/Polycomb complex protein BMI-1 (Homo sapiens). As to the kind of experiment: PROTAC activity at […] in human 786-0 cells with defective VHL assessed as degradation of BMI1 protein expression at 10 uM incubated for 24 hrs by Western blotting analysis. The class given is cell-based.
The target of assay [10] is T2, Protein cereblon/E3 ubiquitin-protein ligase RING2. As to the kind of experiment: PROTAC activity at CRBN/RING1B in human 786-0 cells with defective VHL assessed as degradation of RING1B protein expression at 10 uM incubated for 24 hrs by Western blotting analysis. It is filed as cell-based.
The subject of assay [11] is PC-3M. Nature of the assay: Induction of PRC2 degradation in human PC-3M cells assessed as reduction of H3K27me3 chromatin mark at 0.2 to 5 uM incubated for 24 hrs by Western blotting analysis. The class given is cell-based. The conditions noted are these: dose 0.2-5 µM.
Assay [12] deals with PC-3M. Nature of the assay: Induction of PRC1 degradation in human PC-3M cells assessed as reduction of H2AK119ub chromatin mark at 0.2 to 5 uM incubated for 24 hrs by Western blotting analysis. It is filed as cell-based. The conditions noted are these: dose 0.2-5 µM.
Assay [13] concerns MDA-MB-468. Nature of the assay: Induction of PRC2 degradation in human MDA-MB-468 cells assessed as reduction of H3K27me3 chromatin mark at 0.2 to 5 uM incubated for 24 hrs by Western blotting analysis. It is filed as cell-based. Particulars: dose 0.2-5 µM.
Assay [14] concerns MDA-MB-468. Nature of the assay: Induction of PRC1 degradation in human MDA-MB-468 cells assessed as reduction of H2AK119ub chromatin mark at 0.2 to 5 uM incubated for 24 hrs by Western blotting analysis. The class given is cell-based. The conditions noted are these: dose 0.2-5 µM.
Assay [15] concerns the target Polycomb protein EED (Homo sapiens, UniProt O75530). As to the kind of experiment: Binding affinity to EED (75 to 441 residues) (unknown origin) expressed in Escherichia coli BL21 (DE3) assessed as dissociation constant by isothermal titration calorimetry.
Assay [16] deals with 786-0. Nature of the assay: Induction of PRC2 degradation in human 786-0 cells with defective VHL assessed as reduction of H3K27me3 chromatin mark at 10 uM incubated for 24 hrs by Western blotting analysis. It is filed as cell-based.
In assay [17] the test system is 786-0. As to the kind of experiment: Induction of PRC1 degradation in human 786-0 cells with defective VHL assessed as reduction of H2AK119ub chromatin mark at 10 uM incubated for 24 hrs by Western blotting analysis. The class given is cell-based.
The test system of assay [18] is 786-0. Nature of the assay: Antiproliferative activity against human 786-0 cells assessed as inhibition of cell growth at 0.5 to 30 uM incubated for 7 days by WST-8 assay. It is filed as functional, cell-based. The conditions noted are these: dose 0.5-30 µM, time 7.0 day.
Assay [19] addresses T1, von Hippel-Lindau disease tumor suppressor/Polycomb complex protein BMI-1 (Homo sapiens). As to the kind of experiment: PROTAC activity at […] in human PC-3M cells assessed as degradation of BMI1 protein expression at 0.2 to 5 uM incubated for 24 hrs by Western blotting analysis. The class given is cell-based. Particulars: dose 0.2-5 µM.
The target of assay [20] is T2, Protein cereblon/E3 ubiquitin-protein ligase RING2. Nature of the assay: PROTAC activity at CRBN/RING1B in human PC-3M cells assessed as degradation of RING1B protein expression at 0.2 to 5 uM incubated for 24 hrs by Western blotting analysis. The class given is cell-based. Particulars: dose 0.2-5 µM.
Assay [21] deals with T3, Protein cereblon/Polycomb protein EED (Homo sapiens, UniProt O75530+Q96SW2). As to the kind of experiment: PROTAC activity at CRBN/EED in human PC-3M cells assessed as degradation of EED protein expression at 0.2 to 5 uM incubated for 24 hrs by Western blotting analysis. The class given is cell-based. The conditions noted are these: dose 0.2-5 µM.
T3 sequence (O75530 2-441 limits assumed): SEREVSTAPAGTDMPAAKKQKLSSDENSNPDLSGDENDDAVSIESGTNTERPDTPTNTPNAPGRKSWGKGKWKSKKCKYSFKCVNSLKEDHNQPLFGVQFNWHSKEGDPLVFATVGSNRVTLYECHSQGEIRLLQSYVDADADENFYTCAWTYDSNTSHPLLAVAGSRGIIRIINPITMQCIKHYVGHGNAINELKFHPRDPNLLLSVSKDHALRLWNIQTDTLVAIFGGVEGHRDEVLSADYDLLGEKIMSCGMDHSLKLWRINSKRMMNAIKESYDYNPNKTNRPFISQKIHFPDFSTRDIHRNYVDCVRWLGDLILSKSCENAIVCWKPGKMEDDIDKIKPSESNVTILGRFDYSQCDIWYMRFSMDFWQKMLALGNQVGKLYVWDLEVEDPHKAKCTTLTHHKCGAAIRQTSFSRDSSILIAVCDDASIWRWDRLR
T3 sequence (Q96SW2 whole entry partner): as the sequence (Q96SW2 whole entry) above
For assay [22], the target named is T4, Protein cereblon/Histone-lysine N-methyltransferase EZH2 (Homo sapiens) (UniProt Q15910+Q96SW2). Nature of the assay: PROTAC activity at CRBN/EZH2 in human PC-3M cells assessed as degradation of EZH2 protein expression at 0.2 to 5 uM incubated for 24 hrs by Western blotting analysis. The conditions noted are these: dose 0.2-5 µM. The class given is cell-based.
T4 sequence (Q15910 whole entry, looked up): as the sequence (Q15910 whole entry) above
T4 sequence (Q96SW2 whole entry, looked up): as the sequence (Q96SW2 whole entry) above

Assay [23] deals with T5, Protein cereblon/Polycomb protein SUZ12 (Homo sapiens) (UniProt Q15022+Q96SW2). Nature of the assay: PROTAC activity at CRBN/SUZ12 in human PC-3M cells assessed as degradation of SUZ12 protein expression at 0.2 to 5 uM incubated for 24 hrs by Western blotting analysis. Particulars: dose 0.2-5 µM. The class given is cell-based.
T5 sequence (Q15022 whole entry, looked up): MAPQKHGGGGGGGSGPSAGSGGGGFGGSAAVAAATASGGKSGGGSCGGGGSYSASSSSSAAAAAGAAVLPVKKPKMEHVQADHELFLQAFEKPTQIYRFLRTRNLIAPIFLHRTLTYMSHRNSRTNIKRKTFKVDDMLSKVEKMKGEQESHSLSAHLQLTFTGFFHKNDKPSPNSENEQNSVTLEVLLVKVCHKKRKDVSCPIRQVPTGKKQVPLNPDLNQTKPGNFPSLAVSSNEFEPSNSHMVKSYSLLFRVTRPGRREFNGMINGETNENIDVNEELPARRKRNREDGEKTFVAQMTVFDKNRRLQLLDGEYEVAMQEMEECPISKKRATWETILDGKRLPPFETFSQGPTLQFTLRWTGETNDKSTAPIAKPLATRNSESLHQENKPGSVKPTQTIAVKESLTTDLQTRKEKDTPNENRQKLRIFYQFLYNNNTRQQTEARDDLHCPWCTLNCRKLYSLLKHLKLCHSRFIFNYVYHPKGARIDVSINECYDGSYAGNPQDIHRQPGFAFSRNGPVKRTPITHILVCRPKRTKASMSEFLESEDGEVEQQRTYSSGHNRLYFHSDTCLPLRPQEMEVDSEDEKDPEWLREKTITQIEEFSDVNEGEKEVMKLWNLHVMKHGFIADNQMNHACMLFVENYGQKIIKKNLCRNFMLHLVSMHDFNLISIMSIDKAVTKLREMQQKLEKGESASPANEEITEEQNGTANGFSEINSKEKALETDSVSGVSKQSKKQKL
T5 sequence (Q96SW2 whole entry, looked up): as the sequence (Q96SW2 whole entry) above
Assay [24] has as its target T1, von Hippel-Lindau disease tumor suppressor/Polycomb complex protein BMI-1 (Homo sapiens). As to the kind of experiment: PROTAC activity at […] in human MDA-MB-468 cells assessed as degradation of BMI1 protein expression at 0.2 to 5 uM incubated for 24 hrs by Western blotting analysis. The conditions noted are these: dose 0.2-5 µM. The class given is cell-based.

The target in assay [25] is T2, Protein cereblon/E3 ubiquitin-protein ligase RING2. As to the kind of experiment: PROTAC activity at CRBN/RING1B in human MDA-MB-468 cells assessed as degradation of RING1B protein expression at 0.2 to 5 uM incubated for 24 hrs by Western blotting analysis. It is filed as cell-based. Particulars: dose 0.2-5 µM.
Assay [26] has as its target T3, Protein cereblon/Polycomb protein EED. Nature of the assay: PROTAC activity at CRBN/EED in human MDA-MB-468 cells assessed as degradation of EED protein expression at 0.2 to 5 uM incubated for 24 hrs by Western blotting analysis. The conditions noted are these: dose 0.2-5 µM. It is filed as cell-based.
The target of assay [27] is T4, Protein cereblon/Histone-lysine N-methyltransferase EZH2 (Homo sapiens). As to the kind of experiment: PROTAC activity at CRBN/EZH2 in human MDA-MB-468 cells assessed as degradation of EZH2 protein expression at 0.2 to 5 uM incubated for 24 hrs by Western blotting analysis. The class given is cell-based. The conditions noted are these: dose 0.2-5 µM.
The target in assay [28] is T5, Protein cereblon/Polycomb protein SUZ12 (Homo sapiens). Nature of the assay: PROTAC activity at CRBN/SUZ12 in human MDA-MB-468 cells assessed as degradation of SUZ12 protein expression at 0.2 to 5 uM incubated for 24 hrs by Western blotting analysis. Particulars: dose 0.2-5 µM. It is filed as cell-based.
The subject of assay [29] is K562. As to the kind of experiment: Induction of PRC1 degradation in human K562 cells assessed as reduction of H2AK119ub chromatin mark at 1 to 10 uM incubated for 24 hrs by Western blotting analysis. It is filed as cell-based. The conditions noted are these: dose 1-10 µM.

The source made the active and inactive calls. The calls are words filed in the database; no cut-off is given here.

Chain of von Hippel-Lindau disease tumor suppressor/Polycomb protein EED (O75530 whole entry): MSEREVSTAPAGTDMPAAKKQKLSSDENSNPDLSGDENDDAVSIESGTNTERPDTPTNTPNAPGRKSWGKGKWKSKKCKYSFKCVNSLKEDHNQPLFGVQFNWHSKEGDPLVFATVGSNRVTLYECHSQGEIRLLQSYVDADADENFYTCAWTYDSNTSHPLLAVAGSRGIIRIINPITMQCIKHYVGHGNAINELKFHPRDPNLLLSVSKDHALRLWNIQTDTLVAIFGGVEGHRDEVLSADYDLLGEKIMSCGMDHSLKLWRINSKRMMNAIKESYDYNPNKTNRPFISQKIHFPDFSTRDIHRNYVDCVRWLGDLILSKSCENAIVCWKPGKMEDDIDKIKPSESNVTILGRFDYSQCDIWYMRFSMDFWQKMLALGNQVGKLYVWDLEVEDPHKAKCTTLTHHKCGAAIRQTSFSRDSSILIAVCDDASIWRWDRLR
Chain of von Hippel-Lindau disease tumor suppressor/Polycomb protein EED (P40337 whole entry): as the sequence (P40337 whole entry) above
Chain of Polycomb protein EED (O75530 whole entry, the tested form may be a part): as the sequence (O75530 whole entry) above

By DC50 is commonly meant the concentration giving 50% degradation. In the case of `Cc1nc(CCC(=O)NCCCC(=O)N[C@H](C(=O)N2C[C@H](O)C[C@H]2C(=O)NCc2ccc(-c3scnc3C)cc2)C(C)(C)C)ccc1-c1cnc(NCc2c(F)ccc3c2CCO3)n2cnnc12`, the figures for the half-maximal degradation concentration (DC50) in assay [1] and in [2] were less than 120 nM and less than 1000 nM, respectively.
Regarding `CS(=O)(=O)c1ccc(-c2cnc(NCc3ccco3)n3cnnc23)cc1`, the outcome in assay [3], in [4], in [6], in assay [7], in [8] and in assay [9] was inactive. Moreover, the result in assay [10], in assay [12] and in [14] was inactive. The result in [5], in [11] and in [13] was Active.
Broadly, the Kd is a measure of binding affinity in units of concentration. For `Cc1ncsc1-c1ccc(CNC(=O)[C@@H]2C[C@@H](O)CN2C(=O)[C@@H](NC(=O)CCCCCCNC(=O)CCCCN2CCN(c3ccc(-c4cnc(NCc5ccco5)n5cnnc45)cc3)CC2)C(C)(C)C)cc1`, the Kd in [15] amounted to 3 µM. For the same compound, the outcome in assay [9], in [10] and in [18] was inactive. For the same compound, the outcome in assay [16] and in assay [17] was Active.
On to `Cc1nc(CCC(=O)NCCOc2ccc(OCC(=O)N[C@H](C(=O)N3C[C@H](O)C[C@H]3C(=O)NCc3ccc(-c4scnc4C)cc3)C(C)(C)C)cc2)ccc1-c1cnc(NCc2c(F)ccc3c2CCO3)n2cnnc12`, for which the result in assay [3], in assay [4], in assay [6], in [7], in assay [8] and in assay [19] was inactive. Besides, the result in assay [20], in [12], in assay [24], in [25] and in assay [14] was inactive. In addition, the outcome in assay [5], in [21], in assay [22], in [23], in assay [11] and in assay [26] was Active. Moreover, the outcome in [27], in [28] and in [13] was Active. For the same compound, the DC50 in assay [1] and in assay [2] was less than 120 nM each time.
`Cc1ncsc1-c1ccc(CNC(=O)[C@@H]2C[C@@H](O)CN2C(=O)[C@@H](NC(=O)CCCNC(=O)c2ccc(-c3cnc(NCc4ccco4)n4cnnc34)cc2)C(C)(C)C)cc1`: the outcome in [3], in assay [4], in assay [29] and in assay [6] was inactive. Further, in [5], the outcome was Active.
